Laboratory results reported in US11623924B2, “Modulators of alpha-1 antitrypsin” (Vertex Pharmaceuticals Incorporated, priority 2018, dated 2023).

What follows are compounds tested against T1, NL20 human bronchial epithelial cells expressing human Z-AAT (Homo sapiens, UniProt P01009, E366K) (assay: AAT Function Assay (MSD Assay NL20-SI Cell Line)). Conditions: functionally active AAT (AAT-hNE complex) in supernatant of NL20 cells expressing human Z-AAT; read-out: NL20 Func. (EC50).
T1 construct: expressed in transfected cells; host or cells: NL20 human bronchial epithelial cells (NL20-SI line, doxycycline added)
T1 sequence (P01009 25-418 E366K): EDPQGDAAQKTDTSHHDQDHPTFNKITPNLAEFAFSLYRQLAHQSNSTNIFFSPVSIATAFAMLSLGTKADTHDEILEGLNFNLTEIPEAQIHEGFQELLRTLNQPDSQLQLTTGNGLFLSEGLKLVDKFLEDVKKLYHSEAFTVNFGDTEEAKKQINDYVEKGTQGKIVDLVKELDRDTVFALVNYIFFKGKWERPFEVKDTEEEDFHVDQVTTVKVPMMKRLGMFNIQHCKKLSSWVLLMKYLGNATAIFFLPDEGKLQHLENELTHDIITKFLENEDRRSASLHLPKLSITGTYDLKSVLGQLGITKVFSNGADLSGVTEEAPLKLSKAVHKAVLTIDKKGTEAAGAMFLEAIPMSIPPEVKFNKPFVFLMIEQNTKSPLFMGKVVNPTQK
Format: cell-based
Description: A. AAT Function Assay (MSD Assay NL20-SI Cell Line)
Alpha-1 antitrypsin (AAT) is a SERPIN (serine protease inhibitor) that inactivates enzymes by binding to them covalently. This assay measured the amount of functionally active AAT in a sample in the presence of the disclosed compounds 1-215 by determining the ability of AAT to form an irreversible complex with human neutrophil Elastase (hNE). In practice, the sample (cell supernatant, blood sample, or other) was incubated with excess hNE to allow AAT-Elastase complex to be formed with all functional AAT in the sample. This complex was then captured to a microplate coated with an anti-AAT antibody. The complex captured to the plate was detected with a labeled anti-Elastase antibody and quantitated using a set of AAT standards spanning the concentration range present in the sample. Meso Scale Discovery (MSD) plate reader, Sulfo-tag labeling, and microplates were used to provide high sensitivity and wide dynamic range.
• 1. Harvest NL20 human bronchial epithelial cells expressing human Z-AAT in OptiMEM™ containing Pen/Strep (P/S) • 2. Seed at 16,000 cells/well in 30 μL (384 well plate) • 3. Centrifuge plates briefly up to speed (1200 rpm) and place into 37° C. incubator overnight Day 2: Compound Addition and Coating Plates with Capture Antibody Compound Addition: • 1. Dispense 40 μL of OptiMEM™ (P/S) with doxycycline (1:1000 stock=0.1 μM final) to each well of the compound plate using a multidrop Combi in hood • 2. Remove cell plate from incubator, flip/blot and take immediately to Bravo to transfer compounds • 3. Return plates to incubator overnight Coat MSD Plates • 1. Dilute capture antibody (Polyclonal Goat anti-AAT) to 5 μg/mL (1:200) in PBS (no BSA). • 2. Dispense 25 μL of diluted capture antibody into all wells of MSD 384-well High Bind plate using the Multidrop equipped with a standard cassette. • 3. Incubate overnight at 4° C. Prepare Blocker A (BSA) Solutions • 1. Prepare solution of 5% MSD Blocker A (BSA) following the manufacturer's instructions. • 2. Further dilute the 5% MSD Blocker A in PBS to 1% (Blocker A) as needed. Day 3: Run MSD Assay
Block Plates • 1. Wash plate 1× with 50 μL Wash buffer (PBS+0.5% Tween 20), and adds 35 μL 5% Block A buffer to block non-specific binding on washer dispenser • 2. Rotate plates on shaker for 1 hour at 600 rpm
Prepare M-AAT Standards • 1. Dilute M-AAT stock to 1.6 μg/mL in 1% BSA Blocker A (Stock in −70° C.); then prepare 12×1:2 serial dilutions in 1% Blocker A • 2. The top starting final concentration on MSD plate is 320 ng/mL. These dilutions correspond to a final concentration of 320, 160, 80, 40, 20, 10, 5, 2.5, 1.25, 0.625, 0.312, 0.156 ng/mL.
Dilution Plate • 1. Add 80 μL of 1% Assay buffer to all wells except columns 1/24 (standards) with Multidrop Combi • 2. Add diluted standards to columns 1 and 24 • 3. Centrifuge dilution plates 1200 rpm briefly
Cell Plate • 1. Aspirate columns which will have the standards from the cell plates in the hood using 16-pin aspirator
Prepare Human Neutrophil Elastase (hNE) • 1. Prepare 1 μg/mL Human Neutrophil Elastase by diluting in 1% Blocker A. • a. Small 100 μg vial—add 1 mL PBS (100 μg/mL) • i. This can then be diluted 1:100 in 1% Assay Buffer for a final 1 μg/mL concentration
MSD—Add hNE (20 μL/well) • 1. After the MSD plate has blocked for at least 1 hour, wash plate 1× with 50 μL Wash buffer (PBS+0.5% Tween 20) and then add 20 μL hNE to each well
Bravo—Cell Plate—Dilution Plate—MSD Plate
Using the Bravo aspirate 10 μL from the cell plate, transfer to the dilution plate (9-fold dilution)
• 1. Mix 25 μL 3×, then aspirate 5 μL, transfer to MSD plate (5-fold dilution) • 2. Mix 10 μL 3×. Total dilution is 45 fold. • 3. Shake plates at 600 rpm for 1.5 hours
Add Functional detection hNE antibody • 1. Wash plate 1× with wash buffer • 2. […]
Cc1cc(-n2c(C(C)C)c(C3CC(C(=O)O)C3)c3cc4[nH]ncc4cc32)ccc1F (mixture of isomers) [Compound 18] was tested, and the EC50 was < 1160 nM. Cc1cc(-n2c(C(C)C)c(C3CC(CC(=O)O)C3)c3cc4[nH]ncc4cc32)ccc1F (mixture of isomers) [Compound 22] was tested, and the EC50 was < 1160 nM. For Cc1cc(-n2c(C(C)C)c(C3CC(C)(C(=O)O)C3)c3cc4[nH]nc(C)c4cc32)ccc1F (mixture of isomers) [Compound 55, 3-[5-(4-fluoro-3-methyl-phenyl)-6-isopropyl-3-methyl-1H-pyrrolo[2,3-f]indazol-7-yl]-1-methyl-cyclobutanecarboxylic Acid], the EC50 was < 1160 nM. An EC50 of 1160 to 3000 nM was found for O=C(O)C1CC(Cc2c(C3CCOCC3)n(-c3ccc(F)c(Cl)c3)c3cc4cn[nH]c4cc23)C1 (mixture of isomers) [Compound 79] in this work. An EC50 of 1160 to 3000 nM was found for O=C(O)C1CCC(Cc2c(C3CCOCC3)n(-c3ccc(F)c(Cl)c3)c3cc4cn[nH]c4cc23)CC1 (mixture of isomers) [Compound 83] in this work. An EC50 of 1160 to 3000 nM was found for O=C(O)CC1CC(c2c(C3CCOCC3)n(-c3ccc(F)c(Cl)c3)c3cc4cn[nH]c4cc23)C1 (mixture of isomers) [Compound 85] in this work. An EC50 of 1160 to 3000 nM was found for Cc1cc(-n2c(C3CCOCC3)c(C3CC(CC(=O)O)C3)c3cc4[nH]ncc4cc32)ccc1F (mixture of isomers) [Compound 93] in this work. For Cc1cc(-n2c(C3CCOCC3)c(CC3CC(C(=O)O)C3)c3cc4[nH]ncc4cc32)ccc1F (mixture of isomers) [Compound 96], the EC50 was < 1160 nM. An EC50 of 1160 to 3000 nM was found for O=C(O)C1CC2(C1)CC(c1c(C3C[C@H]4CC[C@@H](C3)O4)n(-c3ccc(F)cc3)c3cc4cn[nH]c4cc13)C2 (mixture of isomers) [Compound 122, 6-[5-(4-fluorophenyl)-6-(8-oxabicyclo[3.2.1]octan-3-yl)-1H-pyrrolo[2,3-f]indazol-7-yl]spiro[3.3]heptane-2-carboxylic Acid] in this work. With COCC(C)(C)c1c(C2CC(C)(C(=O)O)C2)c2cc3[nH]ncc3cc2n1-c1ccc(F)cc1 (mixture of isomers) [Compound 176] the EC50 was < 1160 nM. In the case of CCOC(=O)[C@@H]1C[C@@H]1c1c(C(C)C)n(-c2ccc(F)c(C)c2)c2cc3cn[nH]c3cc12 (racemic) [Compound 15, ethyl (1R,2S)-2-[5-(4-fluoro-3-methyl-phenyl)-6-isopropyl-1H-pyrrolo[2,3-f]indazol-7-yl]cyclopropanecarboxylate], the EC50 is reported as > 3000 nM. For Cc1cc(-n2c(C(C)C)c(CC(C)C(=O)O)c3cc4[nH]ncc4cc32)ccc1F (racemic) [Compound 19], the EC50 was < 1160 nM. In the case of Cc1cc(-n2c(C(C)C)c(C3CC4(CC(C(=O)O)C4)C3)c3cc4[nH]ncc4cc32)ccc1F (racemic) [Compound 24], the EC50 is reported as < 1160 nM. In the case of CC(C)c1c(C2CC3(CC(C(=O)O)C3)C2)c2cc3[nH]ncc3cc2n1-c1ccc(F)cc1 (racemic) [Compound 34, 6-[5-(4-fluorophenyl)-6-isopropyl-1H-pyrrolo[2,3-f]indazol-7-yl]spiro[3.3]heptane-2-carboxylic acid], the EC50 is reported as < 1160 nM. An EC50 of 1160 to 3000 nM was found for Cc1cc(-n2c(C(C)C)c(C3CC4(CC(C(=O)O)C4)C3)c3cc4[nH]nc(C)c4cc32)ccc1F (racemic) [Compound 56, 6-[5-(4-fluoro-3-methyl-phenyl)-6-isopropyl-3-methyl-1H-pyrrolo[2,3-f]indazol-7-yl]spiro[3.3]heptane-2-carboxylic acid] in this work. With Cc1cc(-n2c(C(C)C)c(C3CC4(CC(C(=O)O)C4)C3)c3c(F)c4[nH]nc(C)c4cc32)ccc1F (racemic) [Compound 59, 6-[8-fluoro-5-(4-fluoro-3-methyl-phenyl)-6-isopropyl-3-methyl-1H-pyrrolo[2,3-f]indazol-7-yl]spiro[3.3]heptane-2-carboxylic Acid] the EC50 was < 1160 nM. In the case of O=C(O)C1CC2(C1)CC(c1c(C3CCOCC3)n(-c3ccc(F)c(Cl)c3)c3cc4cn[nH]c4cc13)C2 (racemic) [Compound 76], the EC50 is reported as < 1160 nM. In the case of COC(=O)C1CC2(C1)CC(c1c(C3CCOCC3)n(-c3ccc(F)c(C)c3)c3cc4cn[nH]c4cc13)C2 (racemic) [Compound 89], the EC50 is reported as > 3000 nM. Cc1cc(-n2c(C3CCOCC3)c(C3CC4(CC(C(=O)O)C4)C3)c3cc4[nH]ncc4cc32)ccc1F (racemic) [Compound 90] was tested, and the EC50 was < 1160 nM. An EC50 of 1160 to 3000 nM was found for Cc1cc(-n2c(C3CCOCC3)c(CC(C)C(=O)O)c3cc4[nH]ncc4cc32)ccc1F (racemic) [Compound 105] in this work. An EC50 of 1160 to 3000 nM was found for O=C(O)C1CC2(C1)CC(c1c(C3CCOCC3)n(-c3ccc(F)cc3)c3cc4cn[nH]c4cc13)C2 (racemic) [Compound 108, 6-(5-(4-fluorophenyl)-6-(tetrahydro-2H-pyran-4-yl)-1,5-dihydropyrrolo[2,3-f]indazol-7-yl)spiro[3.3]heptane-2-carboxylic Acid] in this work. For O=C(O)C1CC(Cc2c(C3CCOCC3)n(-c3ccc(F)cc3)c3cc4cn[nH]c4cc23)C1 (racemic) [Compound 116], the EC50 was > 3000 nM. An EC50 of 1160 to 3000 nM was found for O=C1CCCC(c2c(C3CCOCC3)n(-c3ccc(F)cc3)c3cc4cn[nH]c4cc23)C1 (racemic) [Compound 121, 3-[5-(4-fluorophenyl)-6-tetrahydropyran-4-yl-1H-pyrrolo[2,3-f]indazol-7-yl]cyclohexanone] in this work. An EC50 of 1160 to 3000 nM was found for Cc1cc(-n2c(C3CCOCC3)c(C3CC4(CC(C(=O)O)C4)C3)c3cc4[nH]nc(C)c4cc32)ccc1F (racemic) [Compound 126, 6-[5-(4-fluoro-3-methyl-phenyl)-3-methyl-6-tetrahydropyran-4-yl-1H-pyrrolo[2,3-f]indazol-7-yl]spiro[3.3]heptane-2-carboxylic acid] in this work. For Cc1n[nH]c2cc3c(C4CC5(CC(C(=O)O)C5)C4)c(C4CCOCC4)n(-c4ccc(F)c(F)c4)c3cc12 (racemic) [Compound 129, 6-[5-(3,4-difluorophenyl)-3-methyl-6-tetrahydropyran-4-yl-1H-pyrrolo[2,3-f]indazol-7-yl]spiro[3.3]heptane-2-carboxylic Acid], the EC50 was > 3000 nM. With O=C(O)C1CC2(C1)CC(c1c(C3CCOCC3)n(-c3ccc(F)cc3)c3cc4cn[nH]c4c(F)c13)C2 (racemic) [Compound 135, 6-[8-fluoro-5-(4-fluorophenyl)-6-tetrahydropyran-4-yl-1H-pyrrolo[2,3-f]indazol-7-yl]spiro[3.3]heptane-2-carboxylic acid] the EC50 was < 1160 nM. With O=C(O)C1CC2(C1)CC(c1c(C3CCOC3)n(-c3ccc(F)cc3)c3cc4cn[nH]c4cc13)C2 (racemic) [Compound 140, 6-[5-(4-fluorophenyl)-6-tetrahydrofuran-3-yl-1H-pyrrolo[2,3-f]indazol-7-yl]spiro[3.3]heptane-2-carboxylic acid] the EC50 was > 3000 nM. In the case of Cc1cc(-n2c(C(C)C)c(C3CC3C(=O)O)c3cc4[nH]ncc4cc32)ccc1F (single isomer, unassigned) [Compound 13, 2-[5-(4-fluoro-3-methyl-phenyl)-6-isopropyl-1H-pyrrolo[2,3-f]indazol-7-yl]cyclopropanecarboxylic acid], the EC50 is reported as < 1160 nM. With Cc1cc(-n2c(C(C)C)c(C3CC3C(=O)O)c3cc4[nH]ncc4cc32)ccc1F (single isomer, unassigned) [Compound 14, 2-[5-(4-fluoro-3-methyl-phenyl)-6-isopropyl-1H-pyrrolo[2,3-f]indazol-7-yl]cyclopropanecarboxylic acid] the EC50 was < 1160 nM.
